This passage reports IC50 results from patent US11434246B2, “EP4 antagonists” (Eisai R&D Management Co., Ltd., priority 2015, dated 2022).

A word on the IC50: it is the midpoint of a concentration-inhibition curve.

For the experiment, the target named is EP4 (Homo sapiens, UniProt P35408). The experiment is described as follows: EP4 Antagonism by CRE-PLAP Reporter Assay (SE302 cells, PGE2-stimulated). Conditions: SE302 (HEK293) cells, 3 ng/mL PGE2, overnight; single or multiple assay average values. Also noted: HEK293 cells express endogenous EP4; endogenous in cells; host or cells: SE302 (HEK293 clone with CRE-PLAP reporter). It is filed as cell-based. The source says: PGE2 and [^3H]-labelled PGE2 were purchased from Cayman Chemical (Ann Arbor, Mich.) and Perkin Elmer (Waltham, Mass.), respectively. Mouse breast 4T1 cells (CRL-2539) were obtained from American Tissue Culture Collection. SE302 cell line is a clone of the HEK293 cells containing cAMP response element (CRE) promoter that when activated drives secretion of placental-like alkaline phosphatase (PLAP). HEK293 cells express endogenous EP4 and show induction of PLAP in response to PGE2 and EP4 agonists, but not EP1, 2 or 3 agonists (Chen Q, Muramoto K, Masaaki N, Ding Y, Yang H, Mackey M, Li W, Inoue Y, Ackermann K, Shrota H, Matsumoto I, Spyvee M, Schiller S, Sumida T, Gusovsky F, and Lamphier M. A novel antagonist of the prostaglandin E2 EP4 receptor inhibits Th1 differentiation and Th17 expansion and is orally active in arthritis models. British J Pharmacol, 2010, 160: 292-310). BalB/C female mice at 7-8 week age were purchased from Jackson Laboratory (Bar Harbor, Me.). Mice were maintained under specific pathogen-free conditions.
Chain of EP4 (P35408 whole entry): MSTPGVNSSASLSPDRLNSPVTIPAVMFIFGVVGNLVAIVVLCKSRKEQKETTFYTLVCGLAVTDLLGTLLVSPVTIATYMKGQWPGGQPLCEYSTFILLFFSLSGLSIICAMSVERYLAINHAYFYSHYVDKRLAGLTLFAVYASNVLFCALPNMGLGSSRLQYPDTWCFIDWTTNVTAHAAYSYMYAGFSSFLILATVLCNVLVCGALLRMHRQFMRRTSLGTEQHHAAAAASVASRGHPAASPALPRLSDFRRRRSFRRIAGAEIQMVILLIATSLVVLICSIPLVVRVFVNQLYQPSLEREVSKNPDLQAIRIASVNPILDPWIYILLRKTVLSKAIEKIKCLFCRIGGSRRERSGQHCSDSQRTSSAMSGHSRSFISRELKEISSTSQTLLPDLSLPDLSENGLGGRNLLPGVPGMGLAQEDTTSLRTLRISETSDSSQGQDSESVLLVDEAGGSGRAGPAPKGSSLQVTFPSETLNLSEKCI
EP4 Antagonism by CRE-PLAP Reporter Assay: SE302 cells were maintained in DMEM/F12 (50:50) (MediaTech) supplemented with 10% FBS (Tissue Culture Biologicals) plus penicillin/streptomycin. When used for assays, cells were plated in a 96-well plate at 2×10^4 cells/100 μL/well in serum-free assay medium (DMEM/F12 supplemented with 0.1% BSA plus penicillin/streptomycin) and incubated for 4-6 h. Cells were then stimulated with 3 ng/mL of PGE2 in the presence or absence of various concentrations of test compound overnight, and PLAP activity was measured by mixing 15 μL of culture supernatants with 75 μL of Lumi-phos (Lumigen, Inc.) and 60 μL of assay buffer containing 8 mmol/L MgSO4 in 0.1 mol/L carbonate-bicarbonate buffer pH11 in a new 96-well black plate and incubated for 2 h at room temperature. The intensity of luminescence, which reflected the PLAP activity in the supernatant, was quantified with an Envision 2101 Multilabel Reader. Values obtained from DMSO treated samples in the presence of PGE2 were defined as 100% of control, whereas values obtained from DMSO treated samples in the absence of PGE2 were defined as 0% of control. % of control for compound treated samples was calculated as follows: (actual reading−0% of control)/(100% of control−0% of control)×100. IC50 value for each individual experiment was calculated using GraphPad Prism 6.02 (Lake Forest, Calif.) with % of control values.
Compounds of the present invention were assayed according to the methods as described above, and IC50 values, which may be single assay values or multiple assay average values, are summarized in Table 1. Compounds marked “ABS” show absolute stereochemistry.
In general terms: In a reporter assay the amount or activity of a reporter protein is the signal.
Consider `C[C@H](NC(=O)c1c(C(F)(F)F)nn2c1N(Cc1ccc(C(F)(F)F)cc1)CC2)c1ccc(CC(=O)O)cc1` [Compound 27, (S)-2-(4-(1-(6-(trifluoromethyl)-1-(4-(trifluoromethyl)benzyl)-2,3-dihydro-1H-imidazo[1,2-b]pyrazole-7-carboxamido)ethyl)phenyl)acetic Acid], for which the midpoint of inhibition, the IC50, lay at 7.08 nM.

Molecule `Cc1ccccc1CN1CCn2nc(C(F)(F)F)c(C(=O)N[C@@H](C)c3ccc(C(=O)O)cc3)c21` [Compound 19, (S)-4-(1-(1-(2-methylbenzyl)-6-(trifluoromethyl)-2,3-dihydro-1H-imidazo[1,2-b]pyrazole-7-carboxamido)ethyl)benzoic Acid] returned an IC50 of 3.6 nM.

Consider `CCc1nn2c(c1C(=O)N[C@@H](C)c1ccc(C(=O)O)cc1)N(Cc1cccc(C(F)(F)F)c1)CC2` [Compound 59, (S)-4-(1-(6-ethyl-1-(3-(trifluoromethyl)benzyl)-2,3-dihydro-1H-imidazo[1,2-b]pyrazole-7-carboxamido)ethyl)benzoic acid], for which 0.68 nM corresponded to half-maximal inhibition (IC50).

In turn, `C[C@H](NC(=O)c1c(C(F)(F)F)nn2c1N(Cc1ccccc1C(F)(F)F)CC2)c1ccc(C(=O)O)cc1` [Compound 4, (S)-4-(1-(6-(trifluoromethyl)-1-(2-(trifluoromethyl)benzyl)-2,3-dihydro-1H-imidazo[1,2-b]pyrazole-7-carboxamido)ethyl)benzoic Acid] showed an IC50 of 22.4 nM.

`C[C@H](NC(=O)c1c(C(F)(F)F)nn2c1N(Cc1cccc(C(F)(F)F)c1)CC2)c1ccc(C(=O)NS(C)(=O)=O)cc1` [Compound 55, (S)—N-(1-(4-((methylsulfonyl)carbamoyl)phenyl)ethyl)-6-(trifluoromethyl)-1-(3-(trifluoromethyl)benzyl)-2,3-dihydro-1H-imidazo[1,2-b]pyrazole-7-carboxamide] yielded an IC50 of 39.3 nM.

The molecule `C[C@H](NC(=O)c1c(C(F)(F)F)nn2c1N(Cc1cccc(C(F)(F)F)c1)CC2)c1ccc(C(=O)NS(=O)(=O)C2CC2)cc1` [Compound 56, (S)—N-(1-(4-((cyclopropylsulfonyl)carbamoyl)phenyl)ethyl)-6-(trifluoromethyl)-1-(3-(trifluoromethyl)benzyl)-2,3-dihydro-1H-imidazo[1,2-b]pyrazole-7-carboxamide] displayed an IC50 of 73 nM.

Regarding `C[C@H](NC(=O)c1c(C(F)(F)F)nn2c1N(c1ccc(C(F)(F)F)cc1)CCC2)c1ccc(C(=O)O)cc1` [Compound 51, (S)-4-(1-(2-(trifluoromethyl)-4-(4-(trifluoromethyl)phenyl)-4,5,6,7-tetrahydropyrazolo[1,5-a]pyrimidine-3-carboxamido)ethyl)benzoic Acid], the IC50 was 100 nM.

`C[C@H](NC(=O)c1c(C(F)(F)F)nn2c1N(Cc1ccc(N(C)C)cc1)CC2)c1ccc(C(=O)O)cc1` [Compound 88, (S)-4-(1-(1-(4-(dimethylamino)benzyl)-6-(trifluoromethyl)-2,3-dihydro-1H-imidazo[1,2-b]pyrazole-7-carboxamido)ethyl)benzoic Acid]: the IC50 worked out at 18.5 nM.

Molecule `C[C@H](NC(=O)c1c(C(F)(F)F)nn2c1N(Cc1ccc(N)cc1)CC2)c1ccc(C(=O)O)cc1` [Compound 73, (S)-4-(1-(1-(4-aminobenzyl)-6-(trifluoromethyl)-2,3-dihydro-1H-imidazo[1,2-b]pyrazole-7-carboxamido)ethyl)benzoic Acid] displayed an IC50 of 1.49 nM.

The molecule `Cc1cc([C@H](C)NC(=O)c2c(C(F)(F)F)nn3c2N(Cc2ccc(C(F)(F)F)cc2)CC3)ccc1-c1nn[nH]n1` [Compound 58, (S)—N-(1-(3-methyl-4-(2H-tetrazol-5-yl)phenyl)ethyl)-6-(trifluoromethyl)-1-(4-(trifluoromethyl)benzyl)-2,3-dihydro-1H-imidazo[1,2-b]pyrazole-7-carboxamide] gave an IC50 of 4.71 nM.

Take `C[C@H](NC(=O)c1c(C(F)(F)F)nn2c1[N+]([O-])(Cc1cccc(I)c1)CC2)c1ccc(C(=O)O)cc1` (stereo partly drawn) [Compound 76, 7-(((S)-1-(4-carboxyphenyl)ethyl)carbamoyl)-1-(3-iodobenzyl)-6-(trifluoromethyl)-2,3-dihydro-1H-imidazo[1,2-b]pyrazole 1-oxide]: the IC50 amounted to 4.12 nM.
